These are literature values, as cited in patent US8664392B2, “Pyrazine derivatives for bioconjugation” (MediBeacon, LLC, priority 2004, dated 2014).

For this series the following is noted: absorb and emit in the blue to orange regions.

With `Nc1nc(C(=O)O)c(N)nc1C(=O)O` [3,6-diamino-2,5-pyrazine-dicarboxylic acid], the Stokes shift is listed as ~100 nm.
